{"source": "ChEMBL document CHEMBL1142081", "about": "“Evaluation of the in vivo activity of tribendimidine against Schistosoma mansoni, Fasciola hepatica, Clonorchis sinensis, and Opisthorchis viverrini” (2007)", "key": {"[1]": {"test": "Reduction of worm burden in Clonorchis sinensis infected Wistar rat at 150 mg/kg, po relative to control", "format": "functional", "parameters": "scale not given: the % may be the effect or the level left"}, "[2]": {"test": "Reduction of worm burden in Clonorchis sinensis infected Wistar rat at 75 mg/kg, po relative to control", "format": "functional", "parameters": "scale not given: the % may be the effect or the level left"}, "[3]": {"test": "Reduction of worm burden in Opisthorchis viverrini infected Syrian Gold hamster at 400 mg/kg, po relative to control", "format": "functional", "parameters": "scale not given: the % may be the effect or the level left"}, "[4]": {"test": "Reduction of worm burden in Opisthorchis viverrini infected Syrian Gold hamster at 200 mg/kg, po relative to control", "format": "functional", "parameters": "scale not given: the % may be the effect or the level left"}, "Fasciola hepatica [5]": {"tested_on": "Fasciola hepatica", "test": "Reduction of worm burden in Fasciola hepatica infected Wistar rat at 800 mg/kg, po relative to control", "format": "functional", "parameters": "scale not given: the % may be the effect or the level left"}, "Fasciola hepatica [6]": {"tested_on": "Fasciola hepatica", "test": "Effect on Fasciola hepatica infected Wistar rat assessed as infection cured rats at 800 mg/kg, po relative to control", "format": "functional, organism-based", "parameters": "dose 800 mg/kg"}, "Schistosoma mansoni [7]": {"tested_on": "Schistosoma mansoni", "test": "Reduction of total worm burden in Schistosoma mansoni Liberian infection NMRI mouse at 800 mg/kg, po relative to control", "format": "functional", "parameters": "scale not given: the % may be the effect or the level left"}, "Schistosoma mansoni [8]": {"tested_on": "Schistosoma mansoni", "test": "Reduction of female worm burden in Schistosoma mansoni Liberian infected NMRI mouse at 800 mg/kg, po relative to control", "format": "functional", "parameters": "scale not given: the % may be the effect or the level left"}, "Schistosoma mansoni [9]": {"tested_on": "Schistosoma mansoni", "test": "Effect on Schistosoma mansoni Liberian infected NMRI mouse assessed as infection cured mice at 400 mg/kg, po relative to control"}}, "note": "Activity calls are given as the source filed them. The rule behind the calls is not given here."}
{"smiles": "C/C(=N/c1ccc(/N=C/c2ccc(/C=N/c3ccc(/N=C(/C)N(C)C)cc3)cc2)cc1)N(C)C", "note": "[TRIBENDIMIDINE]", "values": [{"measurement": "Activity", "setting": "[1]", "value": 99.1, "unit": "%"}, {"measurement": "Activity", "setting": "[2]", "value": 68.9, "unit": "%"}, {"measurement": "Activity", "setting": "[3]", "value": 95.7, "unit": "%"}, {"measurement": "Activity", "setting": "[4]", "value": 61.4, "unit": "%"}, {"measurement": "Activity", "setting": "Fasciola hepatica [5]", "value": 0, "unit": "%"}, {"measurement": "Activity", "setting": "Fasciola hepatica [6]", "value": "Active"}, {"measurement": "Activity", "setting": "Schistosoma mansoni [7]", "value": 0, "unit": "%"}, {"measurement": "Activity", "setting": "Schistosoma mansoni [8]", "value": 0, "unit": "%"}, {"measurement": "Activity", "setting": "Schistosoma mansoni [9]", "value": "Active"}]}
